The values below come from patent publication US20110306778A1, “CRYSTAL OF SPIROKETAL DERIVATIVES AND PROCESS FOR PREPARATION OF SPIROKETAL DERIVATIVES” (priority 2008, published 2011).

Data set [1] in a line: Storage stability test (total amount of impurities by HPLC after storage in thermostatic chambers). The class given is physicochemical. Particulars: for Course of the total amounts of impurities during storage: both at 25° C. and 40° C. On the procedure: A storage stability test was carried out for monohydrate crystal and an amorphous form of the compound of Formula (XI). The monohydrate crystal of the compound of Formula (XI) was prepared according to the procedure of Example 1, Step 7. The amorphous form of the compound of Formula (XI) was obtained by the following procedure. The monohydrate crystal of the compound (15 g) was melted by heating on hot-stage, and allowed to be cooled to room temperature in a humidity-controlled desiccator (25° C./dry). The resulting solid was grinded in mortar to give a sample used as an amorphous form. The samples were stored in thermostatic chambers at 25° C. or 40° C., and the purity each of the samples was observed after 1 month, 3 months and 6 months.
The purity was determined in the following procedure. A portion each of the samples was weighed precisely (ca. 6 mg) and dissolved in a mixture of water and methanol (1:1) to be 10 mL accurately. The resulting solutions were used as sample solutions, and a portion (10 μL) each of the sample solutions was subjected to HPLC analysis. A total amount of impurities were calculated according to the following formula.
Measurement Condition of HPLC
Device: 2695 Separations Module (manufactured by Waters), 2487 Dual k Absorbance Detector (manufactured by Waters) or 996 Photodiode Array Detector (manufactured by Waters)
Column: YMC-Pack ODS-AM AM-302-3, 4.6 mm I.D.×15 cm, particle size 3 μm (manufactured by YMC)
Mobile phase: Eluent A=methanol, Eluent B=water
Gradient operation: Eluent A: 55% (15 min), Eluent A: 55% to 100% (10 min), 100% (5 min)
Detection wavelength: 220 nm
Sample cooler temperature: 5° C.
Period for measuring peak area: 30 minutes after injection
A storage stability test was carried out for co-crystal of the compound of Formula (XI) with sodium acetate according to the procedure of Test Example 2. The co-crystal of the compound of Formula (XI) with sodium acetate was prepared according to the procedure of Example 5. The samples were stored in thermostatic chambers at 25° C. or 40° C., and the purity each of the samples was observed after 1 month and 3 months. The measurement results were compared with those for the amorphous form obtained in Test Example 2.
A storage stability test was carried out for co-crystal of the compound of Formula (XI) with potassium acetate according to the procedure of Test Example 2. The co-crystal of the compound of Formula (XI) with potassium acetate was prepared according to the procedure of Example 6. The samples were stored in thermostatic chambers at 25° C. or 40° C., and the purity each of the samples was observed after 1 month and 3 months. The measurement results were compared with those for the amorphous form obtained in Test Example 2.

Another data set addresses T1, SGLT2 (Homo sapiens, UniProt P31639).
T1 sequence (P31639 1-672): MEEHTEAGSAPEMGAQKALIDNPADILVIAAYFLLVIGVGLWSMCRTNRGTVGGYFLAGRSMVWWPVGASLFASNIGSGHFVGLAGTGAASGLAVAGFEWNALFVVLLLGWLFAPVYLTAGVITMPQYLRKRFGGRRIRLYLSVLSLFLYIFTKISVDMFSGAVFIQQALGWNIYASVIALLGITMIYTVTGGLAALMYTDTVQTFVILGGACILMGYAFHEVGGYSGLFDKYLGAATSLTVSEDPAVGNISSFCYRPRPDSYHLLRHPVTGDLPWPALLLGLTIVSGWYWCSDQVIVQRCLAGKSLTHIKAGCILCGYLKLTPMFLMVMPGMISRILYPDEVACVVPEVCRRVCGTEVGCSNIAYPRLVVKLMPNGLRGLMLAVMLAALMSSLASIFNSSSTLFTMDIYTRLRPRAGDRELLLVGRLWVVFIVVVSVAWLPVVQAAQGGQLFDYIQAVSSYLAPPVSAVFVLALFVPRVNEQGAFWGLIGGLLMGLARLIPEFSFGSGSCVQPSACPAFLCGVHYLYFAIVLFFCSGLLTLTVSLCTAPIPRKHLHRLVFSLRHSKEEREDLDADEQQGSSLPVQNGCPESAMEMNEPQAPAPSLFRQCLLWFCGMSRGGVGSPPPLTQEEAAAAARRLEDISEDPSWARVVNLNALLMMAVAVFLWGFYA
The note with it: statement of Patent Document 1 (WO 2006/080421 A1); cited from earlier work.

As to `CCc1ccc(Cc2ccc3c(c2)[C@]2(OC3)O[C@H](CO)[C@@H](O)[C@H](O)[C@H]2O)cc1` [Co-crystal with sodium acetate, 1,1-anhydro-1-C-[5-(4-ethylphenyl)methyl-2-(hydroxymethyl)phenyl]-β-D-glucopyranose], in data set [1], the “Course of the total amounts of impurities during storage” value (shortened to “Course”) is reported as “maintained nearly constant for 3 months”. In addition, the “Total amount of impurities (%)” value in data set [1] (storage at 25° C., 0 month) is on record as 0.07%; in data set [1] (storage at 25° C., 3 month), 0.07%; in data set [1] (storage at 40° C., 0 month) it was 0.07%; in data set [1] (storage at 40° C., 1 month), 0.07%; in data set [1] (storage at 40° C., 3 month), 0.08%.

For `CCc1ccc(Cc2ccc3c(c2)[C@]2(OC3)O[C@H](CO)[C@@H](O)[C@H](O)[C@H]2O)cc1` [Amorphous form, 1,1-anhydro-1-C-[5-(4-ethylphenyl)methyl-2-(hydroxymethyl)phenyl]-β-D-glucopyranose], in data set [1], the “Course” value is “increased time-dependently”. Besides, the “Total amount of impurities (%)” value in data set [1] (storage at 25° C., 0 month) is 0.35%; in data set [1] (storage at 25° C., 3 month) it was 0.66%; in data set [1] (storage at 25° C., 6 month), 0.87%; in data set [1] (storage at 40° C., 0 month), 0.35%; in data set [1] (storage at 40° C., 1 month) it was 0.62%; in data set [1] (storage at 40° C., 3 month), 0.92%. Also, in data set [1] (storage at 40° C., 6 month), the “Total amount of impurities (%)” value is on record as 1.46%.

`CCc1ccc(Cc2ccc3c(c2)[C@]2(OC3)O[C@H](CO)[C@@H](O)[C@H](O)[C@H]2O)cc1` [Monohydrate crystal, 1,1-anhydro-1-C-[5-(4-ethylphenyl)methyl-2-(hydroxymethyl)phenyl]-β-D-glucopyranose]: the “Course” value in data set [1] is recorded as “maintained nearly constant for 6 months”. In addition, the “Total amount of impurities (%)” value was 0.30% in data set [1] (storage at 25° C., 0 month); 0.29% in data set [1] (storage at 25° C., 3 month); 0.32% in data set [1] (storage at 25° C., 6 month); 0.30% in data set [1] (storage at 40° C., 0 month); 0.32% in data set [1] (storage at 40° C., 1 month); 0.31% in data set [1] (storage at 40° C., 3 month). The “Total amount of impurities (%)” value in data set [1] (storage at 40° C., 6 month) was found to be 0.36%.

Take `CCc1ccc(Cc2ccc3c(c2)[C@]2(OC3)O[C@H](CO)[C@@H](O)[C@H](O)[C@H]2O)cc1` [Co-crystal with potassium acetate, 1,1-anhydro-1-C-[5-(4-ethylphenyl)methyl-2-(hydroxymethyl)phenyl]-β-D-glucopyranose]: in data set [1], the “Course” value is “maintained nearly constant for 3 months”. Besides, the “Total amount of impurities (%)” value was found to be 0.08% in data set [1] (storage at 25° C., 0 month); 0.08% in data set [1] (storage at 25° C., 3 month); 0.08% in data set [1] (storage at 40° C., 0 month); 0.08% in data set [1] (storage at 40° C., 1 month); 0.08% in data set [1] (storage at 40° C., 3 month).

For the compound `CCc1ccc(Cc2ccc3c(c2)[C@]2(OC3)O[C@H](CO)[C@@H](O)[C@H](O)[C@H]2O)cc1` [Formula (B)], the “Inhibitory activity against SGLT2” value at SGLT2 is listed as “excellent inhibitory activity”.
